Data reported in ChEMBL document CHEMBL3352542, “Synthesis, biological evaluation and molecular modeling study of 2-(1,3,4-thiadiazolyl-thio and 4-methyl-thiazolyl-thio)-quinazolin-4-ones as a new class of DHFR inhibitors” (Bioorg Med Chem Lett, 2014).
Active and inactive are the calls of the source. The rule behind the calls is not given here.

Key:
[1] = tested on: HT-29; test: Growth inhibition of human HT-29 cells at 10 uM after 48 hrs; assay type: functional
[2] = tested on: HOP-62; test: Growth inhibition of human HOP62 cells at 10 uM after 48 hrs; assay type: functional
[3] = tested on: RPMI-8226; test: Growth inhibition of human RPMI8226 cells at 10 uM after 48 hrs; assay type: functional
[4] = tested on: HCT-116; test: Growth inhibition of human HCT116 cells at 10 uM after 48 hrs; assay type: functional
[5] = tested on: Staphylococcus aureus; test: Antimicrobial activity against Staphylococcus aureus assessed as inhibition zone at 200 ug/disk after 24 hrs by disc-diffusion method; assay type: functional; conditions: read-out: IZ
[6] = tested on: Bacillus subtilis; test: Antimicrobial activity against Bacillus subtilis assessed as inhibition of visible growth after 24 hrs by disc-diffusion method; assay type: functional, organism-based
[7] = tested on: MOLT-4; test: Growth inhibition of human MOLT4 cells at 10 uM after 48 hrs; assay type: functional
[8] = tested on: Hs-578T; test: (§1) Growth inhibition of human Hs 578T cells at 10 uM after 48 hrs; assay type: functional
[9] = tested on: MDA-MB-435; test: Growth inhibition of human MDA-MB-435 cells at 10 uM after 48 hrs; assay type: functional
[10] = tested on: Bacillus subtilis; test: Antimicrobial activity against Bacillus subtilis assessed as inhibition zone at 200 ug/disk after 24 hrs by disc-diffusion method; assay type: functional; conditions: read-out: IZ
[11] = tested on: U-251; test: Growth inhibition of human U251 cells at 10 uM after 48 hrs; assay type: functional
[12] = tested on: A498; test: Growth inhibition of human A498 cells at 10 uM after 48 hrs; assay type: functional
[13] = tested on: 786-0; test: Growth inhibition of human 786-0 cells at 10 uM after 48 hrs; assay type: functional
[14] = target: T1, Dihydrofolate reductase (Bos taurus, UniProt P00376); test: Inhibition of bovine liver DHFR
T1 sequence (P00376 whole entry): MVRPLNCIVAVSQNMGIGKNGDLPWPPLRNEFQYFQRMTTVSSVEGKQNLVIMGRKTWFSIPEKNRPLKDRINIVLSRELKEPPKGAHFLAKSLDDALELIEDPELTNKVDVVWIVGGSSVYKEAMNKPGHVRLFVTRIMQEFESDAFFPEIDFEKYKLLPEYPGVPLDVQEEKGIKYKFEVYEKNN

[15] = tested on: NCI-H226; test: Growth inhibition of human NCI-H226 cells at 10 uM after 48 hrs; assay type: functional
[16] = tested on: Pseudomonas aeruginosa; test: Antimicrobial activity against Pseudomonas aeruginosa assessed as inhibition zone at 200 ug/disk after 24 hrs by disc-diffusion method; assay type: functional; conditions: read-out: IZ
[17] = tested on: T47D; test: Growth inhibition of human T47D cells at 10 uM after 48 hrs; assay type: functional
[18] = tested on: CAKI-1; test: Growth inhibition of human CAKI-1 cells at 10 uM after 48 hrs; assay type: functional
[19] = tested on: UACC-62; test: Growth inhibition of human UACC62 cells at 10 uM after 48 hrs; assay type: functional
[20] = tested on: HOP-92; test: (§2) Growth inhibition of human HOP92 cells at 10 uM after 48 hrs; assay type: functional
[21] = tested on: MDA-MB-231; test: Growth inhibition of human MDA-MB-231 cells at 10 uM after 48 hrs; assay type: functional
[22] = tested on: K562; test: Growth inhibition of human K562 cells at 10 uM after 48 hrs; assay type: functional
[23] = tested on: OVCAR-4; test: Growth inhibition of human OVCAR4 cells at 10 uM after 48 hrs; assay type: functional
[24] = tested on: SK-MEL-28; test: Growth inhibition of human SK-MEL-28 cells at 10 uM after 48 hrs; assay type: functional, cell-based
[25] = tested on: UO-31; test: (§3) Growth inhibition of human UO31 cells at 10 uM after 48 hrs; assay type: functional
[26] = tested on: SF-295; test: (§4) Growth inhibition of human SF295 cells at 10 uM after 48 hrs; assay type: functional
[27] = tested on: MDA-MB-468; test: Growth inhibition of human MDA-MB-468 cells at 10 uM after 48 hrs; assay type: functional
[28] = tested on: CCRF-CEM; test: Growth inhibition of human CCRF-CEM cells at 10 uM after 48 hrs; assay type: functional
[29] = tested on: Escherichia coli; test: Antimicrobial activity against Escherichia coli assessed as inhibition zone at 200 ug/disk after 24 hrs by disc-diffusion method; assay type: functional; conditions: read-out: IZ
[30] = tested on: SF-539; test: Growth inhibition of human SF539 cells at 10 uM after 48 hrs; assay type: functional
[31] = tested on: MCF7; test: Growth inhibition of human MCF7 cells at 10 uM after 48 hrs; assay type: functional
[32] = tested on: Escherichia coli; test: Antimicrobial activity against Escherichia coli assessed as inhibition of visible growth after 24 hrs by disc-diffusion method; assay type: functional, organism-based
[33] = tested on: UACC-257; test: Growth inhibition of human UACC257 cells at 10 uM after 48 hrs; assay type: functional
[34] = tested on: A549; test: Growth inhibition of human A549 cells at 10 uM after 48 hrs; assay type: functional
[35] = tested on: Candida albicans; test: Antimicrobial activity against Candida albicans assessed as inhibition zone at 200 ug/disk after 24 hrs by disc-diffusion method; assay type: functional; conditions: read-out: IZ
[36] = tested on: RXF 393; test: Growth inhibition of human RXF393 cells at 10 uM after 48 hrs; assay type: functional
[37] = tested on: PC-3; test: (§5) Growth inhibition of human PC3 cells at 10 uM after 48 hrs; assay type: functional
[38] = tested on: HCT-15; test: Growth inhibition of human HCT15 cells at 10 uM after 48 hrs; assay type: functional
[39] = tested on: SNB-19; test: Growth inhibition of human SNB19 cells at 10 uM after 48 hrs; assay type: functional
[40] = tested on: SR; test: Growth inhibition of human SR cells at 10 uM after 48 hrs; assay type: functional
[41] = tested on: KM12; test: Growth inhibition of human KM12 cells at 10 uM after 48 hrs; assay type: functional
[42] = tested on: Staphylococcus aureus; test: Antimicrobial activity against Staphylococcus aureus assessed as inhibition of visible growth after 24 hrs by disc-diffusion method; assay type: functional, organism-based
[43] = tested on: HL-60(TB); test: Growth inhibition of human HL-60(TB) cells at 10 uM after 48 hrs; assay type: functional
[44] = tested on: SK-MEL-5; test: Growth inhibition of human SK-MEL-5 cells at 10 uM after 48 hrs; assay type: functional
[45] = tested on: NCI-H522; test: Growth inhibition of human NCI-H522 cells at 10 uM after 48 hrs; assay type: functional
[46] = tested on: Malme-3M; test: Growth inhibition of human MALME-3M cells at 10 uM after 48 hrs; assay type: functional
[47] = as §1; assay type: functional; conditions: read-out: GI
[48] = as §2; assay type: functional; conditions: HOP-92, 48 h, read-out: GI
[49] = as §3; assay type: functional; conditions: UO-31, 48 h, read-out: GI
[50] = as §4; assay type: functional; conditions: SF-295, 48 h, read-out: GI
[51] = as §5; assay type: functional; conditions: PC-3, 48 h, read-out: GI

## Cc1ccc(-n2c(Sc3nnc(N)s3)nc3ccc(Cl)cc3c2=O)cc1
[1]
  growth inhibition (GI): inactive
[2]
  growth inhibition (GI): inactive
[3]
  growth inhibition (GI): inactive
[4]
  growth inhibition (GI): inactive
[5]
  zone of inhibition at 200 µg/disc: 18 mm
[6]
  Activity: Active
[7]
  growth inhibition (GI): inactive
[8]
  growth inhibition (GI): inactive
[9]
  growth inhibition (GI): inactive
[10]
  zone of inhibition at 200 µg/disc: 20 mm
[11]
  growth inhibition (GI): inactive
[12]
  growth inhibition (GI): inactive
[13]
  growth inhibition (GI): inactive
[14]
  IC50: 8 µM
[15]
  growth inhibition (GI): inactive
[16]
  zone of inhibition at 200 µg/disc: 14 mm
[17]
  growth inhibition (GI): inactive
[18]
  growth inhibition (GI): inactive
[19]
  growth inhibition (GI): inactive
[20]
  growth inhibition (GI): inactive
[21]
  growth inhibition (GI): inactive
[22]
  growth inhibition (GI): inactive
[23]
  growth inhibition (GI): inactive
[24]
  growth inhibition (GI): inactive
[25]
  growth inhibition (GI): inactive
[26]
  growth inhibition (GI): inactive
[27]
  growth inhibition (GI): inactive
[28]
  growth inhibition (GI): inactive
[29]
  zone of inhibition at 200 µg/disc: 18 mm
[30]
  growth inhibition (GI): inactive
[31]
  growth inhibition (GI): inactive
[32]
  Activity: Active
[33]
  growth inhibition (GI): inactive
[34]
  growth inhibition (GI): inactive
[35]
  zone of inhibition at 200 µg/disc: 10 mm
[36]
  growth inhibition (GI): inactive
[37]
  growth inhibition (GI): inactive
[38]
  growth inhibition (GI): inactive
[39]
  growth inhibition (GI): inactive
[40]
  growth inhibition (GI): inactive
[41]
  growth inhibition (GI): inactive
[42]
  Activity: Active
[43]
  growth inhibition (GI): inactive
[44]
  growth inhibition (GI): inactive
[45]
  growth inhibition (GI): inactive
[46]
  growth inhibition (GI): inactive

## COc1cc2nc(Sc3nnc(N)s3)n(-c3ccc(Cl)cc3)c(=O)c2cc1OC
[5]
  zone of inhibition at 200 µg/disc: 8 mm
[47]
  inhibition of growth at 10 µM: 10.9%
[10]
  zone of inhibition at 200 µg/disc: 8 mm
[11]; U-251, 48 h, read-out: GI
  inhibition of growth at 10 µM: 11.5%
[12]; A498, 48 h, read-out: GI
  inhibition of growth at 10 µM: 18.8%
[14]
  IC50: 6 µM
[16]
  zone of inhibition at 200 µg/disc: 8 mm
[17]; read-out: GI
  inhibition of growth at 10 µM: 13.7%
[18]; CAKI-1, 48 h, read-out: GI
  inhibition of growth at 10 µM: 12.6%
[48]
  inhibition of growth at 10 µM: 40.9%
[22]; K562, 48 h, read-out: GI
  inhibition of growth at 10 µM: 15.3%
[49]
  inhibition of growth at 10 µM: 23.6%
[50]
  inhibition of growth at 10 µM: 12.1%
[29]
  zone of inhibition at 200 µg/disc: 8 mm
[35]
  zone of inhibition at 200 µg/disc: 8 mm
[51]
  inhibition of growth at 10 µM: 11.2%
[39]; SNB-19, 48 h, read-out: GI
  inhibition of growth at 10 µM: 11.9%
[40]; read-out: GI
  inhibition of growth at 10 µM: 14.4%
[43]; HL-60, 48 h, read-out: GI
  inhibition of growth at 10 µM: 31.5%
[46]; read-out: GI
  inhibition of growth at 10 µM: 12.4%
